For test [1], the system named is human hepatic cell line (HepG2 ATCC HB-8065). The test can be described thus: Human cell viability assay (CellTiter-Glo). As to conditions: Homo sapiens, HepG2, 24 h, read-out: IC50 (μg/mL) HepG2.
Test [2] deals with Pseudomonas aeruginosa ATCC 27853. The test can be described thus: MIC, broth microdilution (CLSI) versus planktonic bacteria. The format is cell-based. As to conditions: ATCC27853; Pseudomonas aeruginosa ATCC 27853; 16-20 h; mode of three independent experiments; read-out: MIC, Pa ATCC 27853.
Test [3] relates to Enterobacter cloacae NCTC 13406. The description is as above. The following applies: NCTC13406; Enterobacter cloacae NCTC 13406; 16-20 h; mode of three independent experiments; read-out: MIC, Ecl NCTC 13406. The format is cell-based.
For test [4], the system named is Escherichia coli ATCC 25922. The description is as above. The format is cell-based. The following applies: ATCC25922; Escherichia coli ATCC 25922; 16-20 h; mode of three independent experiments; read-out: MIC, Ec ATCC 25922.
Test [5] deals with Staphylococcus aureus ATCC 29213. The test is described as above. The format is cell-based. As to conditions: ATCC29213; Staphylococcus aureus ATCC 29213; 16-20 h; mode of three independent experiments; read-out: MIC, Sa ATCC 29213.
For test [6], the system named is Acinetobacter baumannii NCTC 13420. Described as above. The format is cell-based. The following applies: NCTC13420; Acinetobacter baumannii NCTC 13420; 16-20 h; mode of three independent experiments; read-out: MIC, Ab NCTC 13420.
Test [7] deals with Mycobacterium smegmatis ATCC 19420. Described as above. As to conditions: Mycolicibacterium smegmatis, ATCC19420, 16-20 h, mode of three independent experiments, read-out: MIC, Ms ATCC 19420. The format is cell-based.
For test [8], the system named is Streptococcus pneumoniae ATCC 49619. The test is described as above. The format is cell-based. As to conditions: ATCC49619; Streptococcus pneumoniae ATCC 49619; 16-20 h; mode of three independent experiments; read-out: MIC, Sp ATCC 49619.
Test [9] has as its system Haemophilus influenzae ATCC 49247. The test is described as above. The format is cell-based. As to conditions: ATCC49247; Haemophilus influenzae ATCC 49247; 16-20 h; mode of three independent experiments; read-out: MIC, Hi ATCC 49247.

Each structure is given as a SMILES string. In brackets after ≈: the same amount, converted by molar mass.

For five compounds, IC50 and MIC results are on record in patent publication US10487093B2, “Heterocyclic compounds, in particular 2-oxo-4,4,5,5,6,6,7,7-octahydrobenzoxazole derivatives, and their use as antibacterial compounds” (priority 2016, dated 2019).

For `NCCOc1ccc2ccc(=O)n(CCN[C@H]3CC[C@H]4[C@@H](C3)OC(=O)N4c3ccc4c(n3)NC(=O)CO4)c2n1` [Compound 10, 1-(2-{[(3aS,6S,7aR)-2-oxo-3-{3-oxo-2H,3H,4H-pyrido[3,2-b][1,4]oxazin-6-yl}-octahydro-1,3-benzoxazol-6-yl]amino}ethyl)-7-(2-aminoethoxy)-1,2-dihydro-1,8-naphthyridin-2-one], in test [1], the IC50 is more than 100 µg/mL. For the same compound, the MIC was 1 to 10 µg/mL (≈ 1.87 to 18.7 µM) in test [2]; more than 100 µg/mL in test [3]; 1 to 10 µg/mL (≈ 1.87 to 18.7 µM) in [4]; 10 to 100 µg/mL (≈ 18.7 to 187 µM) in test [5]; more than 100 µg/mL in [6]; more than 100 µg/mL in test [7]. In addition, the MIC in test [8] and in test [9] was 10 to 100 µg/mL (≈ 18.7 to 187 µM) in each case.

`NCCCOc1ccc2ccc(=O)n(CCN[C@H]3CC[C@H]4[C@@H](C3)OC(=O)N4c3ccc4c(n3)NC(=O)CO4)c2n1` [Compound 5, 1-(2-{[(3aS,6S,7aR)-2-oxo-3-{3-oxo-2H,3H,4H-pyrido[3,2-b][1,4]oxazin-6-yl}-octahydro-1,3-benzoxazol-6-yl]amino}ethyl)-7-(3-aminopropoxy)-1,2-dihydro-1,8-naphthyridin-2-one]: the IC50 in [1] is more than 100 µg/mL. Besides, the MIC is 1 to 10 µg/mL (≈ 1.82 to 18.2 µM) in test [2]; more than 100 µg/mL in test [3]; 10 to 100 µg/mL (≈ 18.2 to 182 µM) in [4]; 1 to 10 µg/mL (≈ 1.82 to 18.2 µM) in [5]; more than 100 µg/mL in [6]; 1 to 10 µg/mL (≈ 1.82 to 18.2 µM) in [7]. For the same compound, the MIC in test [8] is 10 to 100 µg/mL (≈ 18.2 to 182 µM); in test [9] it was more than 100 µg/mL.

On to `O=C1COc2ccc(N3C(=O)O[C@@H]4C[C@@H](NCCn5c(=O)ccc6ccc(OCCO)nc65)CC[C@@H]43)nc2N1` [Compound 6, 1-(2-{[(3aS,6S,7aR)-2-oxo-3-{3-oxo-2H,3H,4H-pyrido[3,2-b][1,4]oxazin-6-yl}-octahydro-1,3-benzoxazol-6-yl]amino}ethyl)-7-(2-hydroxyethoxy)-1,2-dihydro-1,8-naphthyridin-2-one], for which the IC50 in [1] was more than 100 µg/mL. In addition, the MIC is 1 to 10 µg/mL (≈ 1.86 to 18.6 µM) in [2]; 10 to 100 µg/mL (≈ 18.6 to 186 µM) in test [3]; 1 to 10 µg/mL (≈ 1.86 to 18.6 µM) in test [4]; 1 to 10 µg/mL (≈ 1.86 to 18.6 µM) in test [5]; 10 to 100 µg/mL (≈ 18.6 to 186 µM) in [6]; less than 1 µg/mL in test [7]. The values for the MIC in test [8] and in test [9] were less than 1 µg/mL and 1 to 10 µg/mL (≈ 1.86 to 18.6 µM), respectively.

Regarding `N#Cc1ccc2ccc(=O)n(CCN(CCN)[C@H]3CC[C@H]4[C@@H](C3)OC(=O)N4c3ccc4c(n3)NC(=O)CO4)c2c1` [Compound 58, 1-(2-{[(3aS,6S,7aR)-2-oxo-3-{3-oxo-2H,3H,4H-pyrido[3,2-b][1,4]oxazin-6-yl}-octahydro-1,3-benzoxazol-6-yl](2-aminoethyl)amino}ethyl)-2-oxo-1,2-dihydroquinoline-7-carbonitrile], the IC50 in [1] is more than 100 µg/mL. Also, the MIC in [2] was 1 to 10 µg/mL (≈ 1.84 to 18.4 µM); in [3], more than 100 µg/mL; in test [4], 10 to 100 µg/mL (≈ 18.4 to 184 µM); in test [5] it was less than 1 µg/mL; in [6], more than 100 µg/mL; in test [7] it was 1 to 10 µg/mL (≈ 1.84 to 18.4 µM). Besides, the MIC in test [8] and in test [9] was more than 100 µg/mL each time.

In the case of `NCCOc1ccc2ccc(=O)n(CCN[C@H]3CC[C@H]4[C@@H](C3)OC(=O)N4c3ccc4c(n3)NC(=O)CO4)c2c1` [Compound 9, 1-(2-{[(3aS,6S,7aR)-2-oxo-3-{3-oxo-2H,3H,4H-pyrido[3,2-b][1,4]oxazin-6-yl}-octahydro-1,3-benzoxazol-6-yl]amino}ethyl)-7-(2-aminoethoxy)-1,2-dihydroquinolin-2-one], in [1], the IC50 is more than 100 µg/mL. Moreover, the MIC in test [2] was 1 to 10 µg/mL (≈ 1.87 to 18.7 µM); in test [3], more than 100 µg/mL; in test [4] it was 1 to 10 µg/mL (≈ 1.87 to 18.7 µM); in test [5], 1 to 10 µg/mL (≈ 1.87 to 18.7 µM); in test [6], more than 100 µg/mL; in test [7] it was more than 100 µg/mL. Also, the MIC in test [8] and in test [9] was 10 to 100 µg/mL (≈ 18.7 to 187 µM) each time.
